In the supplement of paper PMC10307832:

Columns and labels:
Tosedostat + Luminespib = compound: CC(C)C[C@@H](C(=O)N[C@H](C(=O)OC1CCCC1)c1ccccc1)[C@H](O)C(=O)NO [Tosedostat] + CCNC(=O)c1noc(-c2cc(C(C)C)c(O)cc2O)c1-c1ccc(CN2CCOCC2)cc1 [Luminespib] (partner 0.01 µM); assay: relative viability (nuclei count vs DMSO), 5 days (fraction); higher = more cells survive
How it was run: (§1)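 Nuclei were stained with Hoechst during a one-step fixation (final 0.05% Triton X-100, 1% formaldehyde, 1 ug/ml Hoechst) carried out 5 days after dosing, then counted on 4× images. The cells, lung cancer lines in 1536-well plates, had been dosed by pin tool the day after seeding with one drug alone or a fixed anchor-drug dose plus five library-drug doses (not always all listed) in √10 steps. Relative viability is the nuclei count in treated wells divided by that in vehicle wells, and each value is the median of duplicate plates.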

Tosedostat + Dasatinib = compound: CC(C)C[C@@H](C(=O)N[C@H](C(=O)OC1CCCC1)c1ccccc1)[C@H](O)C(=O)NO [Tosedostat] + Cc1nc(Nc2ncc(C(=O)Nc3c(C)cccc3Cl)s2)cc(N2CCN(CCO)CC2)n1 [Dasatinib] (partner 0.075 µM); assay: as above
How it was run: as §1

Row | Cell Line | relative viability (Tosedostat + Luminespib; first compound 0.02 µM) | relative viability (Tosedostat + Luminespib; first compound 0.06325 µM) | relative viability (Tosedostat + Luminespib; first compound 0.2 µM) | relative viability (Tosedostat + Luminespib; first compound 0.6325 µM) | relative viability (Tosedostat + Luminespib; first compound 2 µM) | relative viability (Tosedostat + Dasatinib; first compound 0.02 µM) | relative viability (Tosedostat + Dasatinib; first compound 0.06325 µM) | relative viability (Tosedostat + Dasatinib; first compound 0.2 µM) | relative viability (Tosedostat + Dasatinib; first compound 0.6325 µM) | relative viability (Tosedostat + Dasatinib; first compound 2 µM)
1 | NCI-H522 | 1.29 | 1.27 | 1.23 | 1.41 | 1.27 | 0.901 | 0.982 | 0.858 | 0.843 | 0.945
2 | HCC-15 | 0.408 | 0.269 | 0.78 | 0.211 | 0.308 | 0.64 | 0.625 | 0.578 | 0.559 | 0.462
3 | A-427 | 0.882 | 0.739 | 1.01 | 0.919 | 1.08 | 0.646 | 0.762 | 0.733 | 0.712 | 0.692
4 | NCI-H3122 | 0.0953 | 0.083 | 0.106 | 0.122 | 0.132 | 0.745 | 0.912 | 0.925 | 0.915 | 0.711
5 | NCI-H1915 | 0.864 | 0.79 | 0.814 | 0.803 | 0.608 | 0.321 | 0.348 | 0.306 | 0.277 | 0.215
6 | NCI-H1355 | 0.699 | 0.782 | 0.779 | 0.688 | 0.648 | 0.758 | 0.681 | 0.728 | 0.592 | 0.57
7 | NCI-H2023 | 0.912 | 0.628 | 0.796 | 0.571 | 0.614 | 0.585 | 0.571 | 0.552 | 0.518 | 0.505
8 | NCI-H1755 | 0.595 | 0.512 | 0.512 | 0.578 | 0.415 | 0.436 | 0.403 | 0.444 | 0.42 | 0.361
9 | HCC-366 |  |  |  |  |  | 0.723 | 0.594 | 0.665 | 0.556 | 0.646
10 | SK-MES-1 | 0.813 | 0.813 | 0.898 | 0.789 | 0.74 | 0.285 | 0.237 | 0.329 | 0.213 | 0.229
11 | NCI-H596 | 1.07 | 1.26 | 1.04 | 0.893 | 0.938 | 0.648 | 0.623 | 0.614 | 0.656 | 0.619
12 | RERF-LC-KJ | 1.35 | 1.23 | 1.36 | 1.08 | 1.2 | 0.873 | 0.77 | 0.771 | 0.623 | 0.511
13 | LOU-NH91 | 0.377 | 0.454 | 0.313 | 0.306 | 0.322 | 0.6 | 0.584 | 0.568 | 0.51 | 0.42
14 | NCI-H1623 | 0.51 | 0.622 | 0.607 | 0.538 | 0.607 | 0.585 | 0.542 | 0.607 | 0.552 | 0.601
15 | LC-2-ad | 1.2 | 1.05 | 0.923 | 0.792 | 0.891 | 0.865 | 0.51 | 0.675 | 0.602 | 0.337
16 | CAL-12T | 0.364 | 0.304 | 0.834 | 0.713 | 0.353 | 0.316 | 0.489 | 0.472 | 0.381 | 0.217
17 | NCI-H1650 | 0.185 | 0.179 | 0.205 | 0.19 | 0.174 | 0.329 | 0.362 | 0.346 | 0.448 | 0.311

Row | Cell Line | relative viability (Tosedostat + Luminespib; first compound 0.02 µM) | relative viability (Tosedostat + Luminespib; first compound 0.06325 µM) | relative viability (Tosedostat + Luminespib; first compound 0.2 µM) | relative viability (Tosedostat + Luminespib; first compound 0.6325 µM) | relative viability (Tosedostat + Luminespib; first compound 2 µM) | relative viability (Tosedostat + Dasatinib; first compound 0.02 µM) | relative viability (Tosedostat + Dasatinib; first compound 0.06325 µM) | relative viability (Tosedostat + Dasatinib; first compound 0.2 µM) | relative viability (Tosedostat + Dasatinib; first compound 0.6325 µM) | relative viability (Tosedostat + Dasatinib; first compound 2 µM)
18 | BEN | 0.467 | 0.387 | 0.264 | 0.435 | 0.248 | 0.348 | 0.348 | 0.39 | 0.446 | 0.344
19 | EMC-BAC-2 | 1.26 | 1.06 | 1.17 | 1.15 | 0.986 | 0.317 | 0.356 | 0.343 | 0.371 | 0.311
20 | LXF-289 | 0.703 | 0.599 | 0.687 | 0.732 | 0.64 | 0.199 | 0.248 | 0.244 | 0.225 | 0.184
21 | ABC-1 | 0.622 | 0.706 | 0.596 | 0.647 | 0.398 | 0.632 | 0.598 | 0.519 | 0.563 | 0.481
22 | NCI-H2170 | 0.819 | 0.637 | 0.612 | 0.592 | 0.662 | 0.575 | 0.514 | 0.558 | 0.63 | 0.451
23 | NCI-H1437 | 1.13 | 1.07 | 1.2 | 1.24 | 1.13 | 0.488 | 0.46 | 0.415 | 0.323 | 0.327
24 | NCI-H441 | 0.347 | 0.351 | 0.348 | 0.332 | 0.306 | 0.702 | 0.61 | 0.583 | 0.445 | 0.539
25 | NCI-H2087 | 0.181 | 0.158 | 0.273 | 0.229 | 0.21 | 1.17 | 0.936 | 0.908 | 0.688 | 0.869
26 | NCI-H647 | 0.11 | 0.212 | 0.171 | 0.334 | 0.167 | 0.212 | 0.211 | 0.218 | 0.197 | 0.151
27 | SW 1573 | 0.219 | 0.215 | 0.456 | 0.411 | 0.277 | 0.572 | 0.36 | 0.368 | 0.317 | 0.314
28 | HARA | 0.683 | 0.554 | 0.766 | 0.481 | 0.779 | 0.304 | 0.282 | 0.235 | 0.234 | 0.195
29 | NCI-H2347 | 0.421 | 0.425 | 0.594 | 0.417 | 0.474 | 0.269 | 0.353 | 0.291 | 0.311 | 0.26
30 | NCI-H1651 | 0.787 | 0.715 | 0.981 | 0.828 | 0.582 | 0.566 | 0.384 | 0.411 | 0.399 | 0.338
31 | NCI-H2342 | 0.686 | 0.732 | 0.806 | 0.859 | 0.883 | 0.306 | 0.367 | 0.321 | 0.275 | 0.295
32 | NCI-H2009 | 1.12 | 1 | 1.05 | 0.97 | 1.04 | 0.279 | 0.334 | 0.226 | 0.267 | 0.24
33 | ChaGo-K-1 | 0.648 | 0.598 | 0.836 | 0.572 | 0.491 | 0.662 | 0.567 | 0.587 | 0.535 | 0.394
